Experimental data taken from patent US20220170029A1, “APPLICATION OF NAT1 GENE AS SCREENING MARKER IN GENETIC TRANSFORMATION OF OOMYCETE” (priority 2021, published 2022).

Columns and labels:
Phytophthora sojae = conditions: oomycete carrying encoding gene of mutated protein; cited from earlier work
[1] = tested on: wide-type Phytophthora sojae; test: Growth on nourseothricin-containing V8 culture medium, control strain; type: cell-based; conditions: 50 μg/mL nourseothricin, grows on V8 medium without nourseothricin
Experimental: (§1) The 15 candidate transformants screened in Example 1 were transformed to the 50 μg/mL nourseothricin-containing V8 culture medium to observe the growth condition of the 15 candidate transformants, and the wide-type Phytophthora sojae is used as a control strain.

[2] = tested on: Avh109 gene complemented transformants of Phytophthora sojae (Nat1 gene as selection marker); test: Growth on nourseothricin-containing V8 culture medium, candidate transformants carrying the Nat1 gene; type: cell-based; conditions: 50 μg/mL nourseothricin; 15 candidate transformants with Nat1 gene
Experimental: (S2) After the centrifugation, the supernatant was discarded. Then 5 mL of PM culture medium were added into the centrifuge tube to resuspend the regenerated hypha. After that, 5 mL of 30 μg/mL nourseothricin-containing PM culture medium were added into the centrifuge tube, and mixed to be poured into a petri dish. Then the petri dish was subjected to drying, and culturing at 25° C. in dark for 3-4 days to perform primary screening.
(S3) The growth condition of hyphae on the surface of the petri dish was observed. 10 mL of 50 μg/mL nourseothricin-containing V8 culture medium were added into the petri dish, and cultured at 25° C. in the dark for 3-4 days to perform secondary screening.
(S4) The growth condition of hyphae on the surface of the petri dish was observed. The regenerated strain was transferred to the 50 μg/mL nourseothricin-containing V8 culture medium to perform tertiary screening. After three screenings in the presence of nourseothricin, 15 transformants were obtained, which were preliminarily considered to be complemented transformants (candidate transformants) for subsequent identification.
as §1

In the case of Cc1cc(C(F)(F)F)nn1CC(=O)N1CCC(c2nc(C3=NOC(c4c(F)cccc4F)C3)cs2)CC1 (stereo not drawn) [oxathiapiprolin], the “resistance to oxathiapiprolin induced in the oomycete by the mutated protein” value (Phytophthora sojae) is listed as “more than 500 times”.

In the case of nourseothricin, the “growth condition on nourseothricin-containing V8 medium” value [1] is reported as “not able to grow” and the “growth condition on nourseothricin-containing V8 medium” value [2] is reported as “able to grow normally”.
